Experimental data from US20120225123A1, “Use of Synergistic Combinations of an Avermectin and an Antineoplastic Compounds for the Treatment of Hematological Malignancies” (UNIVERSITY HEALTH NETWORK, priority 2009, published 2012).
Peptide text beside a SMILES is read from it. * marks the point of attachment. Cbz = O=C(OCc1ccccc1)*; CH2F = FC*

What was measured:
OCI-AML2 cells [1] = experiment: Cell death, viability and cell cycle in OCI-AML2 cells; type: cell-based, human; details: for effect of calcium chelation on IVM-induced cell death: chelation of intra and extracellular calcium
Method: Cell growth and viability was assessed by the MTS assay (Promega, Madison, Wis.) according to the manufacturer's instructions and as previously described.^12 Cell death was measured by Annexin V-fluoroscein isothiocyanate (FITC) and Propidium Iodide (PI; Biovision Research Products, Mountain View, Calif.) staining and flow cytometry according to the manufacturer's instructions and as previously described.^13 To identify CD34+ cells, a normal PBSC sample was co-stained with PE-anti-CD34+ (Beckman Coulter, Marseille France), and APC-anti-CD45 (Becton Dickenson, San Jose Calif.).
Cell cycle analysis was performed as described previously.^15 Briefly, cells were harvested, washed with cold PBS, and resuspended in 80% cold ethanol. Cells were then treated with 100 ng/mL DNase-free RNase A (Invitrogen) at 37° C. for 30 min, washed with cold PBS, and resuspended in PBS with 50 μg/mL propidium iodide. DNA content was analyzed by flow cytometry (FACSCalibur; Becton Dickinson). The percentage of cells in each phase of the cell cycle was calculated with FlowJo version 8.8 (TreeStar, Ashland, Oreg.).

[2] = system: STAT1 and target genes IFIT3, OAS1 and TRIM22 in OCI-AML2 cells; experiment: Gene expression by Q-RT-PCR, OCI-AML2; type: cell-based, human; details: pre-treatment with NAC
Method: Leukemia cells were treated with buffer control or ivermectin (3 μM) for 30 and 40 hours. After treatment, cells were harvested, total RNA was isolated. Total RNA (10 μg) was used for cRNA amplification using the Invitrogen SuperScript kit (Life Technologies, Inc., Burlington, ON, Canada). Amplification and biotin labeling of antisense cRNA was performed using the Enzo® BioArray™ High Yield™ RNA transcript labeling kit (Enzo Diagnostics, Farmingdale, N.Y., USA), according to the manufacturer's instructions. RNA was then hybridized to Affymetrix HG U133 Plus 2.0 gene expression oligonucleotide arrays (Affymetrix, Santa Clara, Calif., USA). Microarray slides were scanned using the GeneArray 2500 scanner (Agilent Technologies). Microarray data were analyzed using GeneSpring GX v10.0 (Agilent), and lists of genes deregulated>2-fold after 30 and 40 hr ivermectin treatment were derived. Pathways and gene ontology analyses were carried out using Ingenuity Pathways Analysis (www.ingenuity.com); and the Database for Annotation, Visualization and Integrated Discovery (DAVID; http://david.abcc.ncifcrf.gov). […]
Gene expression changes were evaluated in OCI AML2, 0937, HL60, DU145 and PPC-1 cells by real-time Q-RT-PCRas described previously^15, 47. The expression level of STAT1A, STAT1B, TRIM22, OAS1 and IFIT3 before and after incubation of leukemia cells with ivermectin was evaluated.

leukemia cells = experiment: Combination of IVM with albendazole, combination index; type: cell-based
OCI-AML2 cells [3] = experiment: Reactive oxygen species, Carboxy-H2DCFDA staining, OCI-AML2; type: cell-based, human; details: increasing concentrations, flow cytometry
Method: Data were analyzed with FlowJo version 8.8 (TreeStar, Ashland, Oreg.).

Compound: CC(=O)OCOC(=O)CN(CC(=O)OCOC(C)=O)c1ccccc1OCCOc1ccccc1N(CC(=O)OCOC(C)=O)CC(=O)OCOC(C)=O [BAPTA-AM]
- effect of calcium chelation on IVM-induced cell death (OCI-AML2 cells [1]): did not inhibit IVM-induced cell death

Compound: O=C(O)CN(CCN(CC(=O)O)CC(=O)O)CC(=O)O [EDTA]
- effect of calcium chelation on IVM-induced cell death (OCI-AML2 cells [1]): did not inhibit IVM-induced cell death

Compound: CC(=O)N[C@@H](CS)C(=O)O [NAC, N-acetyl-L-Cysteine]
- effect of NAC pre-treatment on ivermectin upregulation of STAT1 genes [2]: blocked their upregulation
- effect of free radical scavenger on IVM-induced cell death (OCI-AML2 cells [1]; treated with IVM along with NAC): abrogated IVM-induced cell death

Compound: CCCSc1ccc2nc(NC(=O)OC)[nH]c2c1 [albendazole]
- CI value at the ED25 (leukemia cells): 1.59
- CI value at the ED75 (leukemia cells): 0.89
- drug interaction with IVM (leukemia cells): antagonized the anti-leukemic effects of IVM

Compound: Nc1ccn([C@@H]2O[C@H](CO)[C@@H](O)[C@@H]2O)c(=O)n1 [cytarabine]
- ROS production (OCI-AML2 cells [3]): increase ROS production

Compound: COc1cccc2c1C(=O)c1c(O)c3c(c(O)c1C2=O)C[C@@](O)(C(C)=O)C[C@@H]3O[C@H]1C[C@H](N)[C@H](O)[C@H](C)O1 [daunorubicin]
- ROS production (OCI-AML2 cells [3]): increase ROS production

Compound: COC(=O)C[C@H](NC(=O)[C@H](C)NC(=O)[C@@H](NC(=O)OCc1ccccc1)C(C)C)C(=O)CF [z-VAD-fmk] (Cbz-Val-Ala-Asp(OMe)-CH2F)
- effect of pan-caspase inhibitor co-treatment on ivermectin-induced cell death (OCI-AML2 cells [1]; co-treatment with ivermectin, 24 hours, Annexin V-PI): abrogated cell death
